Data taken from patent US8846947B2, “Benzimidazoles and related analogs as sirtuin modulators” (GlaxoSmithKline LLC, priority 2008, dated 2014).

Target: T1, SIRT1 (Homo sapiens, UniProt Q96EB6)
T1 sequence (Q96EB6 1-747): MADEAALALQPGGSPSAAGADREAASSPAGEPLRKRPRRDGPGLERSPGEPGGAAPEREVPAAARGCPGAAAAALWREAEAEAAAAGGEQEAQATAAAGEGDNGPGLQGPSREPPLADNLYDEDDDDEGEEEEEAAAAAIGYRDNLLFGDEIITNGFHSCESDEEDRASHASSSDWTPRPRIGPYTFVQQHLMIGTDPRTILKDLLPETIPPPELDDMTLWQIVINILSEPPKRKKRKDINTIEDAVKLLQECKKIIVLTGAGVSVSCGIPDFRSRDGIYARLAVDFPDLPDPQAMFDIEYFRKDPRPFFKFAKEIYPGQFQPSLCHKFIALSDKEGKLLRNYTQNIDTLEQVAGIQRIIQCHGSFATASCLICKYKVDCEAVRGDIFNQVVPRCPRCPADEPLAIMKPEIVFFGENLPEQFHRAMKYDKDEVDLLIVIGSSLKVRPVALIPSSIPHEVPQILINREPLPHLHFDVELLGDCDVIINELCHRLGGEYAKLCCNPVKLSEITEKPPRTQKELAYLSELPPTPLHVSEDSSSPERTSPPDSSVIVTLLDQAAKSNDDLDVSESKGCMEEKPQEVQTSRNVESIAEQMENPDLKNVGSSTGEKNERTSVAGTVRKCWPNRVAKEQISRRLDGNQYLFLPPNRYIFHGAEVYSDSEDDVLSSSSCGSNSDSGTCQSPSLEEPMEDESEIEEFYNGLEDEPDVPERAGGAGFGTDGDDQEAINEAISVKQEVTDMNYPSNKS
Experiment: Mass spectrometry based SIRT1 deacetylase activation assay (acetylated p53-derived peptide substrate)
Type: biochemical
Details: 0.5 μM peptide substrate, 120 μM βNAD+, 10 nM SIRT1, 25 minutes at 25° C.

SMILES	EC1.5	Fold Act. (percent maximum fold activation)
O=C(Nc1cccc(OC[C@@H](O)CO)c1)c1cncc2[nH]c(-c3ccccc3C(F)F)nc12 [Compound 714]	A (EC1.5<1.0 uM)	A (Fold activation >200%)
O=C(Nc1cccc(OC[C@H](O)CO)c1)c1cncc2[nH]c(-c3ccc(Cl)cc3C(F)F)nc12 [Compound 715]	A (EC1.5<1.0 uM)	A (Fold activation >200%)
O=C(Nc1cccc(OC[C@@H](O)CO)c1)c1cncc2[nH]c(-c3ccc(Cl)cc3C(F)F)nc12 [Compound 716]	A (EC1.5<1.0 uM)	A (Fold activation >200%)
O=C(Nc1cccc(OC[C@H](O)CO)c1)c1cccc2[nH]c(-c3ccc(F)cc3C(F)F)nc12 [Compound 717]	A (EC1.5<1.0 uM)	A (Fold activation >200%)
O=C(Nc1cccc(OC[C@@H](O)CO)c1)c1cccc2[nH]c(-c3ccc(F)cc3C(F)F)nc12 [Compound 718]	A (EC1.5<1.0 uM)	A (Fold activation >200%)
O=C(Nc1cccc(OC[C@H](O)CO)c1)c1cccc2[nH]c(-c3cc(F)ccc3C(F)F)nc12 [Compound 719]	A (EC1.5<1.0 uM)	A (Fold activation >200%)
O=C(Nc1cccc(OC[C@@H](O)CO)c1)c1cccc2[nH]c(-c3cc(F)ccc3C(F)F)nc12 [Compound 720]	A (EC1.5<1.0 uM)	A (Fold activation >200%)
O=C(Nc1cccc(OC[C@H](O)CO)c1)c1cccc2[nH]c(-c3ccccc3C(F)F)nc12 [Compound 721]	A (EC1.5<1.0 uM)	A (Fold activation >200%)
O=C(Nc1nccs1)c1cccc2[nH]c(-c3ccc(OCCN4CCOCC4)cc3C(F)F)nc12 [Compound 722]	A (EC1.5<1.0 uM)	A (Fold activation >200%)
O=C(Nc1ccccn1)c1cccc2[nH]c(-c3ccc(OCCN4CCOCC4)cc3C(F)F)nc12 [Compound 723, 2-(2-(difluoromethyl)-4-(2-morpholinoethoxy)phenyl)-N-(pyridin-2-yl)-1H-benzo[d]imidazole-7-carboxamide]	A (EC1.5<1.0 uM)	A (Fold activation >200%)
O=C(Nc1cccnc1)c1cccc2[nH]c(-c3ccc(OCCN4CCOCC4)cc3C(F)F)nc12 [Compound 724]	A (EC1.5<1.0 uM)	A (Fold activation >200%)
O=C(Nc1cccc(OC[C@@H](O)CO)c1)c1cccc2[nH]c(-c3ccccc3C(F)(F)F)nc12 [Compound 725, (S)-N-(3-(2,3-dihydroxypropoxy)phenyl)-2-(2-(trifluoromethyl)phenyl)-1H-benzo[d]imidazole-4-carboxamide]	A (EC1.5<1.0 uM)	A (Fold activation >200%)
O=C(Nc1ccccc1OCC(O)CO)c1cccc2[nH]c(-c3ccc(Cl)cc3C(F)(F)F)nc12 (stereo not shown) [Compound 726]	B (EC1.5 1-25 uM)	A (Fold activation >200%)
O=C(Nc1ccccc1OCC(O)CO)c1cccc2[nH]c(-c3ccc(F)cc3C(F)(F)F)nc12 (stereo not shown) [Compound 727]	B (EC1.5 1-25 uM)	A (Fold activation >200%)
O=C(Nc1ccc(CN2CCNCC2)nc1)c1cccc2[nH]c(-c3ccccc3C(F)(F)F)nc12 [Compound 728]	A (EC1.5<1.0 uM)	A (Fold activation >200%)
O=C(Nc1ccccc1OCC(O)CO)c1cccc2[nH]c(-c3ccccc3C(F)(F)F)nc12 (stereo not shown) [Compound 729]	B (EC1.5 1-25 uM)	A (Fold activation >200%)
O=C(Nc1ccccc1OCC(O)CO)c1cccc2[nH]c(-c3cc(F)ccc3C(F)(F)F)nc12 (stereo not shown) [Compound 730]	B (EC1.5 1-25 uM)	A (Fold activation >200%)
